Measured values as given in the supplement of paper PMC10307832.

Legend:
Experiment in all cases: relative viability (nuclei count vs DMSO), 5 days (fraction); higher = more cells survive
VE-821 + Pictilisib = compound: CS(=O)(=O)c1ccc(-c2cnc(N)c(C(=O)Nc3ccccc3)n2)cc1 [VE-821] + CS(=O)(=O)N1CCN(Cc2cc3nc(-c4cccc5[nH]ncc45)nc(N4CCOCC4)c3s2)CC1 [Pictilisib] (partner 1 µM)
How it was run: (§1)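 Dosing by pin tool came one day after lung cancer cell lines were seeded in 1536-well plates, using either one drug or a fixed anchor-drug dose plus five library-drug doses (not always all listed) in √10 steps. After 5 days, nuclei were counted on 4× images. Relative viability is treated-well nuclei count divided by vehicle-well nuclei count, and values are medians of duplicate plates.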

Vismodegib + Phenformin = compound: CS(=O)(=O)c1ccc(C(=O)Nc2ccc(Cl)c(-c3ccccn3)c2)c(Cl)c1 [Vismodegib] + N=C(N)NC(=N)NCCc1ccccc1 [Phenformin] (partner 250 µM)
How it was run: as §1

Vismodegib + Olaparib = compound: CS(=O)(=O)c1ccc(C(=O)Nc2ccc(Cl)c(-c3ccccn3)c2)c(Cl)c1 [Vismodegib] + O=C(c1cc(Cc2n[nH]c(=O)c3ccccc23)ccc1F)N1CCN(C(=O)C2CC2)CC1 [Olaparib] (partner 8 µM)
How it was run: as §1

Ruxolitinib + Crizotinib = compound: N#CC[C@H](C1CCCC1)n1cc(-c2ncnc3[nH]ccc23)cn1 [Ruxolitinib] + C[C@@H](Oc1cc(-c2cnn(C3CCNCC3)c2)cnc1N)c1c(Cl)ccc(F)c1Cl [Crizotinib] (partner 1 µM)
How it was run: as §1

Row | Cell Line | relative viability (VE-821 + Pictilisib; first compound 0.08 µM) | relative viability (VE-821 + Pictilisib; first compound 0.253 µM) | relative viability (VE-821 + Pictilisib; first compound 0.8 µM) | relative viability (VE-821 + Pictilisib; first compound 2.53 µM) | relative viability (VE-821 + Pictilisib; first compound 8 µM) | relative viability (Vismodegib + Phenformin; first compound 0.08 µM) | relative viability (Vismodegib + Phenformin; first compound 0.253 µM) | relative viability (Vismodegib + Phenformin; first compound 0.8 µM) | relative viability (Vismodegib + Phenformin; first compound 2.53 µM) | relative viability (Vismodegib + Phenformin; first compound 8 µM) | relative viability (Vismodegib + Olaparib; first compound 0.08 µM) | relative viability (Vismodegib + Olaparib; first compound 0.253 µM) | relative viability (Vismodegib + Olaparib; first compound 0.8 µM) | relative viability (Vismodegib + Olaparib; first compound 2.53 µM) | relative viability (Vismodegib + Olaparib; first compound 8 µM) | relative viability (Ruxolitinib + Crizotinib; first compound 0.08 µM) | relative viability (Ruxolitinib + Crizotinib; first compound 0.253 µM) | relative viability (Ruxolitinib + Crizotinib; first compound 0.8 µM) | relative viability (Ruxolitinib + Crizotinib; first compound 2.53 µM) | relative viability (Ruxolitinib + Crizotinib; first compound 8 µM)
1 | NCI-H2023 | 0.278 | 0.223 | 0.191 | 0.194 | 0.135 | 0.367 | 0.364 | 0.43 | 0.384 | 0.401 | 0.496 | 0.448 | 0.519 | 0.44 | 0.541 | 0.533 | 0.574 | 0.746 | 0.704 | 0.719
2 | NCI-H2085 | 0.461 | 0.446 | 0.485 | 0.483 | 0.409 | 0.698 | 0.749 | 0.714 | 0.718 | 0.697 | 0.724 | 0.816 | 0.775 | 0.74 | 0.712 | 0.844 | 0.921 | 0.857 | 0.784 | 0.711
3 | NCI-H2087 | 1.23 | 0.721 | 0.971 | 1.14 | 0.888 | 0.45 | 0.445 | 0.427 | 0.45 | 0.399 | 0.582 | 0.594 | 0.607 | 0.594 | 0.508 | 0.928 | 1.07 | 1 | 0.919 | 0.615
4 | NCI-H2126 | 0.483 | 0.436 | 0.487 | 0.507 | 0.439 | 0.529 | 0.517 | 0.482 | 0.493 | 0.506 | 0.887 | 0.966 | 0.928 | 0.849 | 0.969 | 0.996 | 1.11 | 1.02 | 1.03 | 0.984
5 | NCI-H2170 | 0.319 | 0.289 | 0.332 | 0.4 | 0.293 | 0.416 | 0.409 | 0.444 | 0.433 | 0.39 | 0.624 | 0.549 | 0.657 | 0.581 | 0.584 | 1.14 | 1.23 | 1.19 | 1.05 | 1.1
6 | NCI-H2228 | 0.401 | 0.414 | 0.585 | 0.566 | 0.358 | 0.387 | 0.452 | 0.301 | 0.296 | 0.314 | 0.596 | 0.796 | 0.56 | 0.502 | 0.477 | 0.63 | 0.36 | 0.531 | 0.492 | 0.403
7 | NCI-H2347 | 0.565 | 0.583 | 0.563 | 0.525 | 0.485 | 0.336 | 0.477 | 0.448 | 0.361 | 0.464 | 0.579 | 0.548 | 0.621 | 0.615 | 0.597 | 0.665 | 0.586 | 0.764 | 0.67 | 0.651
8 | NCI-H2405 | 0.468 | 0.388 | 0.431 | 0.446 | 0.355 | 0.336 | 0.386 | 0.381 | 0.381 | 0.39 | 0.856 | 0.909 | 0.823 | 0.833 | 0.875 | 0.853 | 0.87 | 0.984 | 0.761 | 0.596
9 | NCI-H3122 | 0.666 | 0.672 | 0.563 | 0.765 | 0.78 | 0.377 | 0.356 | 0.362 | 0.365 | 0.36 | 0.613 | 0.598 | 0.614 | 0.664 | 0.65 | 0.332 | 0.269 | 0.282 | 0.312 | 0.282
10 | PC-3 [JPC-3] | 0.784 | 0.797 | 0.851 | 0.938 | 0.763 | 0.483 | 0.48 | 0.457 | 0.483 | 0.483 | 1.09 | 1.11 | 1.03 | 1.09 | 1.17 | 0.886 | 1 | 0.998 | 1.01 | 0.874
11 | PC-14 | 0.91 | 0.734 | 0.708 | 0.759 | 0.74 | 0.658 | 0.444 | 0.567 | 0.512 | 0.602 | 0.262 | 0.175 | 0.254 | 0.248 | 0.254 |  | 0.949 | 0.883 | 0.819 | 0.655
12 | RERF-LC-KJ | 0.496 | 0.498 | 0.463 | 0.547 | 0.482 | 0.422 | 0.427 | 0.432 | 0.437 | 0.455 | 0.985 | 0.826 | 0.785 | 0.862 | 0.96 | 0.863 | 0.868 | 0.864 | 0.827 | 0.687
13 | SK-LU-1 | 0.602 | 0.557 | 0.621 | 0.432 | 0.316 | 0.569 | 0.489 | 0.538 | 0.477 | 0.705 | 0.343 | 0.451 | 0.481 | 0.469 | 0.522 | 1.01 | 1 | 1.08 | 0.847 | 0.584
14 | SK-MES-1 | 0.4 | 0.389 | 0.423 | 0.337 | 0.372 | 0.625 | 0.647 | 0.669 | 0.635 | 0.631 | 0.701 | 0.656 | 0.62 | 0.707 | 0.685 | 1.03 | 0.984 | 1.02 | 0.925 | 0.702
15 | SW 1573 | 0.625 | 0.531 | 0.541 | 0.569 | 0.47 | 0.493 | 0.353 | 0.4 | 0.323 | 0.385 |  | 0.487 | 0.476 | 0.442 | 0.497 | 0.887 | 0.75 | 0.969 | 0.791 | 0.733
